Experimental data: patent US9637453B2, “3-spirocyclic-6-hydroxamic acid tetralins as HDAC inhibitors” (Forma Therapeutics, Inc., priority 2015, dated 2017)

Experiments:
[1] = biological target: T1, Full length human recombinant HDAC6 (Homo sapiens, UniProt Q9UBN7); assay: In vitro histone deacetylase assay, enzymatic HDAC6 (electrophoretic mobility shift assay); format: biochemical; conditions: 1 nM HDAC6; 2 μM peptide substrate FAM-RHKK(Ac)—NH2; 25° C.; 12 concentrations; read-out: HDAC6 Activity Range (IC50)
T1 construct: Full length human recombinant HDAC6 and HDAC11 proteins were expressed in baculoviral system
T1 sequence (Q9UBN7 1-1215): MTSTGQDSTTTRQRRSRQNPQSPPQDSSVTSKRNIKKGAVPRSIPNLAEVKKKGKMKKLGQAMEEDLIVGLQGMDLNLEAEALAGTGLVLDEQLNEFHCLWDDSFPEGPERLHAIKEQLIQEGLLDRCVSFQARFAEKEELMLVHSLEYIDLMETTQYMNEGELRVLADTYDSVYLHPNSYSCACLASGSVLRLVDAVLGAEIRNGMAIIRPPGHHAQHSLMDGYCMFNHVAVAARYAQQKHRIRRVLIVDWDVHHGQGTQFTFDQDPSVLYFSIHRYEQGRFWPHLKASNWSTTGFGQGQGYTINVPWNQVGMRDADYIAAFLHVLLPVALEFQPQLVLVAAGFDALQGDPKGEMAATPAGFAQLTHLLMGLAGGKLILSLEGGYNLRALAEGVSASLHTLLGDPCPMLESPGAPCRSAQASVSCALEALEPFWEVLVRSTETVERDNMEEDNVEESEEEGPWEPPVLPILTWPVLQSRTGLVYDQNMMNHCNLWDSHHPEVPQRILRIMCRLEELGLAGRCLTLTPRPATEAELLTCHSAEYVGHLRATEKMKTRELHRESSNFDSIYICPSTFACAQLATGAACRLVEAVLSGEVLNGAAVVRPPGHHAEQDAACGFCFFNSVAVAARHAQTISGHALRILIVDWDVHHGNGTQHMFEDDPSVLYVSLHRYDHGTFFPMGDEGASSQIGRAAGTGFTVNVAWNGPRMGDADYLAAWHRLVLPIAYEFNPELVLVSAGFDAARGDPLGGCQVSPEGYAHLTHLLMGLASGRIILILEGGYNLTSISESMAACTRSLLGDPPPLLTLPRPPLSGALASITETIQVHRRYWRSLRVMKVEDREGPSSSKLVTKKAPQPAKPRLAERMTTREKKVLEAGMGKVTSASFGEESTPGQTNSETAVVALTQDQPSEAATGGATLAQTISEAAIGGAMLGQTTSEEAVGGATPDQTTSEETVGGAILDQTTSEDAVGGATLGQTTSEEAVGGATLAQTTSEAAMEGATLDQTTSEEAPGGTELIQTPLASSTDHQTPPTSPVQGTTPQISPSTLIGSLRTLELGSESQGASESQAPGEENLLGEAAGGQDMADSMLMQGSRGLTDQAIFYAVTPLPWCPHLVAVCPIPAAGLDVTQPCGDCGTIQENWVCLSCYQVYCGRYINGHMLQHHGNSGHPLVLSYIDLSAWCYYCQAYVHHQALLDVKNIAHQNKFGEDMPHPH
Summary of the method: (§1)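 Baculovirus-expressed full-length enzymes (HDAC6 1 nM, FAM-RHKK(Ac)-NH2; HDAC11 10 nM, FAM-RHKK(tri-fluor-Ac)-NH2), 2 μM substrate, HEPES pH 7.5, 25°C, 12-point 3× dilutions. Product/substrate separated by microfluidic mobility shift after SDS quench; IC50 from 4-parameter fit, reported as +/++/+++ bins.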

[2] = biological target: T2, Full length human recombinant HDAC11 (Homo sapiens, UniProt Q96DB2); assay: In vitro histone deacetylase assay, enzymatic HDAC11 (electrophoretic mobility shift assay); format: biochemical; conditions: 10 nM HDAC11; 2 μM peptide substrate FAM-RHKK(tri-fluor-Ac)—NH2; 25° C.; 12 concentrations; read-out: HDAC11 Activity Range (IC50)
T2 construct: Full length human recombinant HDAC6 and HDAC11 proteins were expressed in baculoviral system
T2 sequence (Q96DB2 1-347): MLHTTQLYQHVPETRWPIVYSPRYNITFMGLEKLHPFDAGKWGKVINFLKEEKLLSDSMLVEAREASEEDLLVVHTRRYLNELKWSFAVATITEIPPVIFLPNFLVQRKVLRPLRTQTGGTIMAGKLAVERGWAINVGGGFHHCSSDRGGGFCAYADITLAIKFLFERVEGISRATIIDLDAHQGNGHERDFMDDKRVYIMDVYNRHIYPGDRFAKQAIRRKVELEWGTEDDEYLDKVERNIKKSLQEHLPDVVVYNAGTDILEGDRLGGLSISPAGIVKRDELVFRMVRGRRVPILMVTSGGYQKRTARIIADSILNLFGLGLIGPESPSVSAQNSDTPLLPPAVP
Summary of the method: as §1

IC50 [1]: ≤ 100 nM
IC50 [2]: 100 to 500 nM
Structure (SMILES): COCCn1c(CN2CC[C@]3(CCc4ccc(C(=O)NO)cc4C3)C2=O)nc2ccccc21 [Compound I-46, (R)—N-hydroxy-1′-((1-(2-methoxyethyl)-1H-benzo[d]imidazol-2-yl)methyl)-2′-oxo-3,4-dihydro-1H-spiro[naphthalene-2,3′-pyrrolidine]-7-carboxamide]
